According to patent publication US9365562B2, “1,3 substituted azetidine PDE10 inhibitors” (Merck Sharp & Dohme Corp., priority 2011, dated 2016):

Molecular target: human PDE10A2 (Homo sapiens (Human), UniProt Q9Y233)
Experiment: PDE10 fluorescence polarization (IMAP FP) inhibition assay
Assay type: biochemical
Conditions: apparent inhibition constant, FAM-labeled cAMP substrate 50 nM, room temperature
Procedure: The activity of the compounds in accordance with the present invention as PDE10 inhibitors may be readily determined without undue experimentation using a fluorescence polarization (FP) methodology that is well known in the art (Huang, W., et al., J. Biomol Screen, 2002, 7: 215).
In a typical experiment the PDE10 inhibitory activity of the compounds of the present invention was determined in accordance with the following experimental method. PDE10A2 was amplified from human fetal brain cDNA (Clontech, Mountain View, Calif.) using a forward primer corresponding to nucleotides 56-77 of human PDE10A2 (Accession No. AF127480, Genbank Identifier 4894716), containing a Kozak consensus sequence, and a reverse primer corresponding to nucleotides 2406-2413 of human PDE10A2 (Accession No. AF127480, Genbank Identifier 4894716). Amplification with Easy-A polymerase (Stratagene, La Jolla, Calif.) was 95° C. for 2 minutes followed by thirty three cycles of 95° C. for 40 seconds, 55° C. for 30 seconds, and 72° C. for 2 minutes 48 seconds. Final extension was 72° C. for 7 minutes. The PCR product was TA cloned into pcDNA3.2-TOPO (Invitrogen, Carlsbad, Calif.) according to standard protocol. AD293 cells with 70-80% confluency were transiently transfected with human PDE10A2/pcDNA3.2-TOPO using Lipofectamine 2000 according to manufacturer specifications (Invitrogen, Carlsbad, Calif.). Cells were harvested 48 hours post-transfection and lysed by sonication (setting 3, 10×5 sec pulses) in a buffer containing 20 mM HEPES, 1 mM EDTA and protease inhibitor cocktail (Roche). Lysate was collected by centrifugation at 75,000×g for 20 minutes. Supernatant containing the cytoplasmic fraction was used for evaluation of PDE10A2 activity. The fluorescence polarization assay for cyclic nucleotide phosphodiesterases was performed using an IMAP® FP kit supplied by Molecular Devices, Sunnyvale, Calif. (product # R8139). IMAP® technology has been applied previously to phosphodiesterase assays (Huang, W., et al., J. Biomol Screen, 2002, 7: 215). Assays were performed at room temperature in 384-well microtiter plates with an incubation volume of 20.2 μL. Solutions of test compounds were prepared in DMSO and serially diluted with DMSO to yield 8 μL of each of 10 solutions differing by 3-fold in concentration, at 32 serial dilutions per plate. 100% inhibition is determined using a known PDE10 inhibitor, which can be any compound that is present at 5,000 times its Ki value in the assay described as follows, such as papaverine (see Siuciak, et al. Neuropharmacology (2006) 51:386-396; Becker, et al. Behav Brain Res (2008) 186(2):155-60; Threlfell, et al., J Pharmacol Exp Ther (2009) 328(3):785-795), 2-{4-[pyridin-4-yl-1-(2,2,2-trifluoroethyl)-1H-pyrazol-3-yl]phenoxymethyl}quinoline succinic acid or 2-[4-(1-methyl-4-pyridin-4-yl-1H-pyrazol-3-yl)-phenoxymethyl]quinoline succinic acid (see Schmidt, et al. J Pharmacol Exp Ther (2008) 325:681-690; Threlfell, et al., J Pharmacol Exp Ther (2009) 328(3): 785-795). 0% of inhibition is determined by using DMSO (1% final concentrations). A Labcyte Echo 555 (Labcyte, Sunnyvale, Calif.) is used to dispense […] from each well of the titration plate to the 384 well assay plate. A solution of enzyme (1/7000 dilution from aliquots; sufficient to produce 20% substrate conversion) and a separate solution of FAM-labeled cAMP PDE from Molecular Devices (product # R7506), at a final concentration of 50 nM are made in the assay buffer (10 mM Tris HCl, pH 7.2, 10 mM MgCl2, 0.05% NaN3 0.01% Tween-20, and 1 mM DTT). The enzyme is added to the assay plates by the addition of 10 μL of enzyme solution to each well, shaken to mix and incubated at room temperature for 60 minutes. The substrate is then added to the assay plates by the addition of 10 μL of substrate solution to each well, shaken to mix, and incubated at room temperature for 60 minutes. […]

Sequence of human PDE10A2 (Q9Y233 267-1055): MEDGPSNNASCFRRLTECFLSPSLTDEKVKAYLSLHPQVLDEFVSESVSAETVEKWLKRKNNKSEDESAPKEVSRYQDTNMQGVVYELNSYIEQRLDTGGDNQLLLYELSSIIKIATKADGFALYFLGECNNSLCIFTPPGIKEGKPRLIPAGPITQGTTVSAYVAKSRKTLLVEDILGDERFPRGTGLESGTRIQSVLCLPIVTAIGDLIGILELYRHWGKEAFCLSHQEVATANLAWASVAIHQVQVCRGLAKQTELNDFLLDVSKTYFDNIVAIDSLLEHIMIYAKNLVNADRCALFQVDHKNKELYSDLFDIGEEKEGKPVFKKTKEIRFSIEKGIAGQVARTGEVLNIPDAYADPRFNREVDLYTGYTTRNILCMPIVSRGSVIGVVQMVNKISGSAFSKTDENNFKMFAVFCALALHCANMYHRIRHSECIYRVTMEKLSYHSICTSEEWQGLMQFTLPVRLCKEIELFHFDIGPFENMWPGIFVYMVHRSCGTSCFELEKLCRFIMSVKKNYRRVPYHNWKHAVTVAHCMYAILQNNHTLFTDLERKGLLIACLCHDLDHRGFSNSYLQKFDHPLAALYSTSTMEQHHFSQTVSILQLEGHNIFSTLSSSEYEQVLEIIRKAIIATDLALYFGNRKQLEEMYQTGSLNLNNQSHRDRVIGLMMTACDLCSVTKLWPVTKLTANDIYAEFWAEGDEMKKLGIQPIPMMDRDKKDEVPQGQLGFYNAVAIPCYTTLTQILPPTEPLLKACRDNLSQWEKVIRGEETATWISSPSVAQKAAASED

Compound | Ki [nM]
1-(1-{2-methoxy-6-3-(1-methyl-1H-benzimidazol-2-yl)azetidin-1-yl]pyrimidin-4-yl}-1H-pyrazol-4-yl)ethanol [Example 20] | 37
Cc1nc(N2CC(c3nc4ccccc4n3C)C2)cc(-n2nc(C)nc2C)n1 [Example 1, 2-(1-(6-(3,5-dimethyl-1H-1,2,4-triazol-1-yl)-2-methylpyrimidin-4-yl)azetidin-3-yl)-1-methyl-1H-benzo[d]imidazole] | 2.1
Cc1nc(N2CC(c3nc4ccccc4n3C)C2)cc(-n2cccn2)n1 [Example 3, 1-methyl-2-(1-(2-methyl-6-(1H-pyrazol-1-yl)pyrimidin-4-yl)azetidin-3-yl)-1H-benzo[d]imidazole] | 2.5
Cc1cnn(-c2cc(N3CC(c4nc5ccccc5n4C)C3)nc(C(F)(F)F)n2)c1 [Example 5, 1-methyl-2-(1-(6-(4-methyl-1H-pyrazol-1-yl)-2-(trifluoromethyl)pyrimidin-4-yl)azetidin-3-yl)-1H-benzo[d]imidazole] | 1.2
Cc1cc(C)n(-c2cc(N3CC(c4nc5ccccc5n4C)C3)nc(C)n2)n1 [Example 7, 2-(1-(6-(3,5-dimethyl-1H-pyrazol-1-yl)-2-methylpyrimidin-4-yl)azetidin-3-yl)-1-methyl-1H-benzo[d]imidazole] | 8.6
Cc1nc(N2CC(c3nc4ccccc4n3C)C2)cc(-n2nc(C)c(C)c2C)n1 [Example 9, 1-methyl-2-(1-(2-methyl-6-(3,4,5-trimethyl-1H-pyrazol-1-yl)pyrimidin-4-yl)azetidin-3-yl)-1H-benzo[d]imidazole] | 0.93
Cc1cc(C(F)(F)F)n(-c2cc(N3CC(c4nc5ccccc5n4C)C3)nc(C)n2)n1 [Example 10, 1-methyl-2-(1-(2-methyl-6-(3-methyl-5-(trifluoromethyl)-1H-pyrazol-1-yl)pyrimidin-4-yl)azetidin-3-yl)-1H-benzo[d]imidazole] | 4
COc1ccn(-c2cc(N3CC(c4nc5ccccc5n4C)C3)nc(C)n2)n1 [Example 12, 2-(1-(6-(3-methoxy-1H-pyrazol-1-yl)-2-methylpyrimidin-4-yl)azetidin-3-yl)-1-methyl-1H-benzo[d]imidazole] | 4.7
CCc1cnn(-c2cc(N3CC(c4nc5ccccc5n4C)C3)nc(C)n2)c1 [Example 15, 2-(1-(6-(4-ethyl-1H-pyrazol-1-yl)-2-methylpyrimidin-4-yl)azetidin-3-yl)-1-methyl-1H-benzo[d]imidazole] | 3.4
Cc1nc(N2CC(c3nc4ccccc4n3C)C2)cc(-n2cc(C(F)(F)F)cn2)n1 [Example 16, 1-methyl-2-(1-(2-methyl-6-(4-(trifluoromethyl)-1H-pyrazol-1-yl)pyrimidin-4-yl)azetidin-3-yl)-1H-benzo[d]imidazole] | 2.7
Cc1nc(N2CC(c3nc4ccccc4n3C)C2)cc(-n2cc(C#N)cn2)n1 [Example 17, 1-(2-methyl-6-(3-(1-methyl-1H-benzo[d]imidazol-2-yl)azetidin-1-yl)pyrimidin-4-yl)-1H-pyrazole-4-carbonitrile] | 4.2
COc1cnn(-c2cc(N3CC(c4nc5ccccc5n4C)C3)nc(C)n2)c1 [Example 18, 2-(1-(6-(4-methoxy-1H-pyrazol-1-yl)-2-methylpyrimidin-4-yl)azetidin-3-yl)-1-methyl-1H-benzo[d]imidazole] | 3.2
Cc1nc(N2CC(c3nc4ccccc4n3C)C2)cc(-n2cc(CO)cn2)n1 [Example 19, (1-(2-methyl-6-(3-(1-methyl-1H-benzo[d]imidazol-2-yl)azetidin-1-yl)pyrimidin 4-yl)-1H-pyrazol-4-yl)methanol] | 8.3
Cc1nc(N2CC(c3nc4ccccc4n3C)C2)cc(-n2nc(C(F)(F)F)nc2C)n1 [Example 21, 1-methyl-2-(1-(2-methyl-6-(5-methyl-3-(trifluoromethyl)-1H-1,2,4-triazol-1-yl)pyrimidin-4-yl)azetidin-3-yl)-1H-benzo[d]imidazole] | 7
CCc1nc(CC)n(-c2cc(N3CC(c4nc5ccccc5n4C)C3)nc(C)n2)n1 [Example 22, 2-(1-(6-(3,5-diethyl-1H-1,2,4-triazol-1-yl)-2-methylpyrimidin-4-yl)azetidin-3-yl)-1-methyl-1H-benzo[d]imidazole] | 3.3
COC(=O)c1nc(N2CC(c3nc4ccccc4n3C)C2)cc(-n2nc(C)nc2C)n1 [Example 24, methyl 4-(3,5-dimethyl-1H-1,2,4-triazol-1-yl)-6-(3-(1-methyl-1H-benzo[d]imidazol-2-yl)azetidin-1-yl)pyrimidine-2-carboxylate] | 1.8
Cc1nc(C)n(-c2cc(N3CC(c4nc5ccccc5n4C)C3)nc(CC#N)n2)n1 [Example 25, 2-(4-(3,5-dimethyl-1H-1,2,4-triazol-1-yl)-6-(3-(1-methyl-1H-benzo[d]imidazol-2-yl)azetidin-1-yl)pyrimidin-2-yl)acetonitrile] | 1.3
CCOC(=O)Cc1nc(N2CC(c3nc4ccccc4n3C)C2)cc(-n2nc(C)nc2C)n1 [Example 26, ethyl 2-(4-(3,5-dimethyl-1H-1,2,4-triazol-1-yl)-6-(3-(1-methyl-1H-benzo[d]imidazol-2-yl)azetidin-1-yl)pyrimidin-2-yl)acetate] | 3.1

Compounds with a lower Ki, results first:

Ki [nM] | Compound
0.61 | Cc1cnn(-c2cc(N3CC(c4nc5ccccc5n4C)C3)nc(C)n2)c1 [Example 2, 1-methyl-2-(1-(2-methyl-6-(4-methyl-1H-pyrazol-1-yl)pyrimidin-4-yl)azetidin-3-yl)-1H-benzo[d]imidazole]
0.82 | COc1nc(N2CC(c3nc4ccccc4n3C)C2)cc(-n2cc(C)cn2)n1 [Example 4, 2-(1-(2-methoxy-6-(4-methyl-1H-pyrazol-1-yl)pyrimidin-4-yl)azetidin-3-yl)-1-methyl-1H-benzo[d]imidazole]
0.53 | Cc1cnn(-c2cc(N3CC(c4nc5ccccc5n4C)C3)nc(C3CC3)n2)c1 [Example 6, 2-(1-(2-cyclopropyl-6-(4-methyl-1H-pyrazol-1-yl)pyrimidin-4-yl)azetidin-3-yl)-1-methyl-1H-benzo[d]imidazole]
0.63 | Cc1nc(N2CC(c3nc4ccccc4n3C)C2)cc(-n2cc(C)c(C)n2)n1 [Example 8, 2-(1-(6-(3,4-dimethyl-1H-pyrazol-1-yl)-2-methylpyrimidin-4-yl)azetidin-3-yl)-1-methyl-1H-benzo[d]imidazole]
0.76 | Cc1nc(N2CC(c3nc4ccccc4n3C)C2)cc(-n2ccc(C(F)(F)F)n2)n1 [Example 11, 1-methyl-2-(1-(2-methyl-6-(3-(trifluoromethyl)-1H-pyrazol-1-yl)pyrimidin-4-yl)azetidin-3-yl)-1H-benzo[d]imidazole]
0.74 | Cc1nc(N2CC(c3nc4ccccc4n3C)C2)cc(-n2ccc(C3CC3)n2)n1 [Example 13, 2-(1-(6-(3-cyclopropyl-1H-pyrazol-1-yl)-2-methylpyrimidin-4-yl)azetidin-3-yl)-1-methyl-1H-benzo[d]imidazole]
0.65 | Cc1nc(N2CC(c3nc4ccccc4n3C)C2)cc(-n2ccc(C(C)C)n2)n1 [Example 14, 2-(1-(6-(3-isopropyl-1H-pyrazol-1-yl)-2-methylpyrimidin-4-yl)azetidin-3-yl)-1-methyl-1H-benzo[d]imidazole]
0.2 | CSc1nc(N2CC(c3nc4ccccc4n3C)C2)cc(-n2nc(C)nc2C)n1 [Example 23, 2-(1-(6-(3,5-dimethyl-1H-1,2,4-triazol-1-yl)-2-(methylthio)pyrimidin-4-yl)azetidin-3-yl)-1-methyl-1H-benzo[d]imidazole]
